Source: PubChem BioAssay AID256 (DTP/NCI, 2004)
“And” between values parts separate entries of the source, which are not always exact repeats. Identical values can stand only once. Inconclusive results and toxic doses are left out. Rule for the calls: active = survival T/C of 150% or more; inactive = T/C below 125% in these data.

System: CD2F1 mice, L1210 leukemia ip, survival T/C
Assay: NCI In Vivo Anticancer Drug Screen. Data for tumor model L1210 Leukemia (intraperitoneal) in CD2F1 (CDF1) mice
Settings: higher = longer survival
Method in brief: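 Tumor-bearing mice (transplanted tumor) were split into treated and vehicle control groups, and the measured endpoint of each treated group was divided by that of its vehicle controls.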

[1] = endpoint: mean survival time, dose: 50.0 mg/kg/injection, schedule: Q01DX009 (ip), vehicle: saline with Tween-80
[2] = endpoint: mean survival time, dose: 100.0 mg/kg/injection, schedule: Q04DX003 (ip), vehicle: saline with Tween-80
[3] = endpoint: mean survival time, dose: 200.0 mg/kg/injection, schedule: Q04DX003 (ip), vehicle: saline with Tween-80
[4] = endpoint: mean survival time, dose: 400.0 mg/kg/injection, schedule: Q04DX003 (ip), vehicle: saline with Tween-80
[5] = endpoint: mean survival time, dose: 12.5 mg/kg/injection, schedule: Q01DX009 (ip), vehicle: other
[6] = endpoint: mean survival time, dose: 25.0 mg/kg/injection, schedule: Q01DX009 (ip), vehicle: other
[7] = endpoint: mean survival time, dose: 50.0 mg/kg/injection, schedule: Q01DX009 (ip), vehicle: other
[8] = endpoint: mean survival time, dose: 100.0 mg/kg/injection, schedule: Q01DX009 (ip), vehicle: other
[9] = endpoint: mean survival time, dose: 200.0 mg/kg/injection, schedule: Q01DX009 (ip), vehicle: other
[10] = endpoint: mean survival time, dose: 25.0 mg/kg/injection, schedule: Q01DX009 (ip), vehicle: Klucel (hydroxypropylcellulose) (HPC)
[11] = endpoint: mean survival time, dose: 50.0 mg/kg/injection, schedule: Q01DX009 (ip), vehicle: Klucel (hydroxypropylcellulose) (HPC)
[12] = endpoint: mean survival time, dose: 100.0 mg/kg/injection, schedule: Q01DX009 (ip), vehicle: Klucel (hydroxypropylcellulose) (HPC)
[13] = endpoint: mean survival time, dose: 12.5 mg/kg/injection, schedule: Q01DX005 (ip), vehicle: water
[14] = endpoint: mean survival time, dose: 25.0 mg/kg/injection, schedule: Q01DX005 (ip), vehicle: water
[15] = endpoint: mean survival time, dose: 50.0 mg/kg/injection, schedule: Q01DX005 (ip), vehicle: water
[16] = endpoint: mean survival time, dose: 200.0 mg/kg/injection, schedule: Q01DX005 (ip), vehicle: water
[17] = endpoint: mean survival time, dose: 12.5 mg/kg/injection, schedule: Q01DX009 (ip), vehicle: Klucel (hydroxypropylcellulose) (HPC)

Measured: T/C

c1ccc(CCN2CCC(CCc3c[nH]c4ccccc34)CC2)cc1
inactive: [1] 107 % of control | endpoint: mean survival time, dose: 50.0 mg/kg/injection, schedule: Q04DX003 (ip), vehicle: saline with Tween-80 110 % of control | [2] 104 % of control | [3] 92 % of control

Cc1c(C)c2c(c(C)c1OC(=O)CCC(=O)O)CCC(C)(CCCC(C)CCCC(C)CCCC(C)C)O2 (stereo not given)
inactive: [2] 102 % of control | [3] 98 % of control | [4] 94 % of control

COC(=O)[C@@]12OC[C@]34[C@H]([C@@H](O)[C@@H]1O)[C@@]1(C)CC(=O)C(OC(=O)CC(=O)OC5=C(C)[C@@H]6C[C@H]7OC(=O)[C@H](OC(=O)/C=C(\C)C(C)C)[C@H]8[C@]9(C(=O)OC)OC[C@]78[C@H]([C@@H](O)[C@@H]9O)[C@@]6(C)CC5=O)=C(C)[C@@H]1C[C@H]3OC(=O)[C@H](OC(=O)/C=C(\C)C(C)C)[C@@H]24
inactive: endpoint: median survival time, dose: 0.37 mg/kg/injection, schedule: Q01DX009 (ip), vehicle: saline + Tween-80 + alcohol 113 % of control | endpoint: median survival time, dose: 0.38 mg/kg/injection, schedule: Q01DX009 (ip), vehicle: saline + Tween-80 + alcohol 112 % of control | endpoint: median survival time, dose: 0.75 mg/kg/injection, schedule: Q01DX009 (ip), vehicle: saline + Tween-80 + alcohol 115 % of control and 121 % of control | endpoint: median survival time, dose: 1.5 mg/kg/injection, schedule: Q01DX009 (ip), vehicle: saline + Tween-80 + alcohol 121 % of control and 112 % of control

CC(C)CCCC(C)C1CCC2C3=CCC4CC(=O)CCC4(C)C3CCC21C (stereo not given)
inactive: [2] 95 % of control | [3] 92 % of control | [4] 93 % of control

COC(=O)NC(=O)c1cn[nH]n1
inactive: [5] 98 % of control | [6] 103 % of control | [7] 97 % of control | [8] 101 % of control | [9] 95 % of control

CN(C1=CC(=O)C(C)(C)c2ccccc21)C1CCCCC1
inactive: [2] 95 % of control | [3] 91 % of control | [4] 94 % of control

O=C(O)c1ccc(C(=O)O)nc1
inactive: endpoint: mean survival time, dose: 100.0 mg/kg/injection, schedule: Q01DX001 (ip), vehicle: saline 87 % of control | endpoint: mean survival time, dose: 200.0 mg/kg/injection, schedule: Q01DX001 (ip), vehicle: saline 95 % of control | endpoint: mean survival time, dose: 400.0 mg/kg/injection, schedule: Q01DX001 (ip), vehicle: saline 97 % of control

O=C(Nc1ccccc1F)c1cccc(Cl)c1
inactive: endpoint: mean survival time, dose: 100.0 mg/kg/injection, schedule: Q01DX009 (ip), vehicle: saline + alcohol 94 % of control | endpoint: mean survival time, dose: 100.0 mg/kg/injection, schedule: Q04DX003 (ip), vehicle: saline + alcohol 95 % of control | endpoint: mean survival time, dose: 200.0 mg/kg/injection, schedule: Q01DX009 (ip), vehicle: saline + alcohol 94 % of control | endpoint: mean survival time, dose: 200.0 mg/kg/injection, schedule: Q04DX003 (ip), vehicle: saline + alcohol 95 % of control | endpoint: mean survival time, dose: 400.0 mg/kg/injection, schedule: Q01DX009 (ip), vehicle: saline + alcohol 94 % of control | endpoint: mean survival time, dose: 400.0 mg/kg/injection, schedule: Q04DX003 (ip), vehicle: saline + alcohol 94 % of control

CC(=O)NC(CC(=O)O)C(=O)NNC(=O)c1ccccc1O (stereo not given)
inactive: [10] 108 % of control | [11] 115 % of control | [12] 104 % of control

CC(=O)Nc1ccc(C(C)=O)cc1
inactive: [2] 108 % of control | [3] 106 % of control | [4] 93 % of control

CCOC(=O)/C=C1\NC(=O)CS1
inactive: endpoint: mean survival time, dose: 100.0 mg/kg/injection, schedule: Q01DX009 (ip), vehicle: saline with Tween-80 97 % of control | [2] 100 % of control | endpoint: mean survival time, dose: 200.0 mg/kg/injection, schedule: Q01DX009 (ip), vehicle: saline with Tween-80 95 % of control | [3] 100 % of control | endpoint: mean survival time, dose: 400.0 mg/kg/injection, schedule: Q01DX009 (ip), vehicle: saline with Tween-80 103 % of control | [4] 100 % of control

Nc1nc(N)c2[nH]c(-c3ccccc3[N+](=O)[O-])nc2n1
inactive: [13] 96 % of control | [14] 89 % of control | [15] 87 % of control | endpoint: mean survival time, dose: 100.0 mg/kg/injection, schedule: Q01DX005 (ip), vehicle: water 96 % of control | [16] 96 % of control

CC(=O)Nc1cc2c(ncn2C2OC(CO)C(O)C2O)c(Br)n1 (stereo not given)
inactive: [13] 93 % of control | [14] 94 % of control | [15] 98 % of control | [16] 94 % of control

Cc1ccc(NC(=O)C(Cl)(Cl)Cl)cc1[N+](=O)[O-]
inactive: [2] 102 % of control | [3] 96 % of control | [4] 98 % of control

CCOC(=O)C(=O)c1c(N)n(C)c(=O)n(C)c1=O
inactive: endpoint: mean survival time, dose: 6.25 mg/kg/injection, schedule: Q01DX009 (ip), vehicle: Klucel (hydroxypropylcellulose) (HPC) 112 % of control | [17] 87 % of control | [10] 102 % of control

COC(=O)C1C2CC(O)C(C2)C1C(=O)OC (stereo not given)
inactive: endpoint: mean survival time, dose: 12.5 mg/kg/injection, schedule: Q01DX009 (ip), vehicle: saline with Tween-80 97 % of control | endpoint: mean survival time, dose: 25.0 mg/kg/injection, schedule: Q01DX009 (ip), vehicle: saline with Tween-80 101 % of control | [1] 104 % of control

COc1c2c(c(OC)c3c1C(=O)c1ccccc1C3=O)CC=CC2
inactive: [5] 105 % of control | [6] 100 % of control | endpoint: mean survival time, dose: 44.0 mg/kg/injection, schedule: Q01DX009 (ip), vehicle: other 92 % of control | [7] 96 % of control | endpoint: mean survival time, dose: 66.0 mg/kg/injection, schedule: Q01DX009 (ip), vehicle: other 90 % of control | [8] 121 % of control and 90 % of control | [9] 105 % of control

NC(N)=N/C(N)=N\c1cnc([N+](=O)[O-])s1
inactive: endpoint: mean survival time, dose: 75.0 mg/kg/injection, schedule: Q01DX001 (ip), vehicle: saline 96 % of control | endpoint: mean survival time, dose: 150.0 mg/kg/injection, schedule: Q01DX001 (ip), vehicle: saline 101 % of control | endpoint: mean survival time, dose: 300.0 mg/kg/injection, schedule: Q01DX001 (ip), vehicle: saline 93 % of control

CC(/C=C/c1ccccc1)=Nc1ccccc1
inactive: [2] 106 % of control | [3] 103 % of control | [4] 106 % of control | endpoint: median survival time, dose: 12.5 mg/kg/injection, schedule: Q01DX009 (ip), vehicle: saline with Tween-80 108 % of control | endpoint: median survival time, dose: 25.0 mg/kg/injection, schedule: Q01DX009 (ip), vehicle: saline with Tween-80 98 % of control | endpoint: median survival time, dose: 50.0 mg/kg/injection, schedule: Q01DX009 (ip), vehicle: saline with Tween-80 111 % of control | endpoint: median survival time, dose: 100.0 mg/kg/injection, schedule: Q01DX009 (ip), vehicle: saline with Tween-80 107 % of control | endpoint: median survival time, dose: 200.0 mg/kg/injection, schedule: Q01DX009 (ip), vehicle: saline with Tween-80 104 % of control

Oc1c(Cl)cc(C(c2cc(Cl)c(O)c(Cl)c2)C(c2cc(Cl)c(O)c(Cl)c2)c2cc(Cl)c(O)c(Cl)c2)cc1Cl
inactive: [17] 95 % of control | [10] 97 % of control | [11] 103 % of control | [12] 106 % of control | endpoint: mean survival time, dose: 200.0 mg/kg/injection, schedule: Q01DX009 (ip), vehicle: Klucel (hydroxypropylcellulose) (HPC) 115 % of control | endpoint: mean survival time, dose: 400.0 mg/kg/injection, schedule: Q01DX009 (ip), vehicle: Klucel (hydroxypropylcellulose) (HPC) 96 % of control
